The text below walks through data of US8834843B2, “Imaging method” (GE Healthcare Limited, priority 2007, dated 2014).

In assay [1] the test system is Integrins on Stellate Cell Membranes. Kind of assay: Binding to integrins on stellate cell membranes (125I-echistatin competition). On the set-up: species or system rat. The conditions noted are these: cold compound vs 125I-echistatin, 37° C. for 60 min; read-out: Ki in the activated stellate cell membrane assay. Here is the method:
An activated rat liver stellate cell line (immortalized) was a kind gift from Professor Trond Berg at University of Oslo. The cells were grown in 150 mm culture flasks to confluence in Dulbeccos modified Eagels medium containing 10% FBS, glutamine and Penicillin/Streptomycin.
The cells were washed twice in ice cold PBS, pH 7.4, added 10 ml PBS and scraped off with a rubber policeman and transferred to a 50 ml vial on ice. Another 10 ml PBS were added to the flasks, scraped and combined with the first cells. The cells were centrifuged at 2000 rpm at 4° C. for 10 min. The supernatant was poured off and the pellet resuspended in 3 ml PBS. All pellets were combined into one tube, centrifuged as above and the final pellet frozen at −70° C. immediately.
The cell pellets were resuspended in ice-cold homogenization buffer (10 times the amount of cells, for example 2 g pellet to 20 ml homogenization buffer) containing 50 mM Tris-HCl, 5 mM MgCl2, 1 mM EGTA, pH7.4 and in addition protease inhibitors 10 ug/ml leupeptin, 10 ug/ml pepstatin, 200 ug/ml Bacitracin, 0.5 ug/ml aprotinin and 100 uM PMSF. […]
An experiment was set up in a 96-well plate. […] This filterspot was cut off and added a tube that finally was counted in a gamma-counter. […]

In a further assay the test system is αv integrin. The experiment in a line: Liver uptake vs alpha-v integrin expression (ELISA) in BDL rat liver. The conditions noted are these: BDL animals. The assay is classed as in vivo. The method, then:
The BDL and sham animal models were set up as described in Example 3. At each of 2, 15 and 28 days post-operatively, ˜3 MBq Compound 8 was administered to animals and the liver uptake assessed as described in Example 3.
The expression of αv integrin in the animals' livers was measured in homogenised livers of BDL- and sham-operated animals. At each of 2, 15 and 28 days post-operatively, animals were sacrificed and their livers removed and stored at −70° C.
Pre-weighed livers were removed from −70° C. freezer and placed into pre-cooled mortar and pestle in the presence of low amount of liquid nitrogen. Liver was crushed to almost a homogenous powder (during the crushing of the liver a small amount of liquid nitrogen was added to keep the tissue frozen at all times). […]
The homogenate was transferred into a pre-chilled glass tissue Dounce and three up and down strokes of the pestle were applied at 4° C. […] Relative protein concentration was determined in each sample using a commercial protein assay kit with BSA standards according to the manufacturer's instruction (Pierce, USA) (BSA aliquots should be made in modified RIPA buffer that was used for the homogenisation). Supernatant from each sample was further diluted between 1:50 and 1:200 in H2O and protein concentration was determined using a […] multi-well Plate reader (iEMS). […]

Numbered stars: 1 amine (or outer) side, 2 acyl side, 3 side chain; on linkers, the order of the positions; unused ones are H or OH. Bridge positions count the residues as written; N and C are the ends. Side chains are listed from the residue outwards. Peptide text beside a SMILES is read from it. * marks the point of attachment. X1 = C/C(=N\O)C(C)(C)NCCC(CCNC(C)(C)/C(C)=N/O)CCN*; Glutaryl = O=C(CCCC(=O)[*:2])[*:1]; X2 = NC(=O)COCC(=O)NCCOCCOCCOCCN*

Turning to `C/C(=N\O)C(C)(C)NCCC(CCNC(=O)CCCC(=O)NCCCC[C@@H]1NC(=O)CSC[C@@H](C(=O)NCCOCCOCCOCCNC(=O)COCC(N)=O)NC(=O)[C@H](Cc2ccccc2)NC(=O)[C@@H]2CSSC[C@H](NC1=O)C(=O)N[C@@H](CCCNC(=N)N)C(=O)NCC(=O)N[C@@H](CC(=O)O)C(=O)N2)CCNC(C)(C)/C(C)=N/O` (some centres unmarked) [Compound 8] ({CH2CO}-K([Glutaryl-X1])CRGDCFC-X2; disulfide 2-6; thioether N-8), the Ki in assay [1] is 56 nM. The “Correlation of αv integrin expression with liver uptake (in words)” value in the assay with αv integrin is given as “correlation”.
